# Key:
# [1] = system: adenoma-bearing LSL-Kras^G12D/p53^flox mice; test: In vivo evaluation of Puf-A suppression in tumourigenesis (intranasal lentiviral shRNA); conditions: lentiviral vector intranasally twice a week for two weeks; sacrificed 6 weeks after Kras^G12D activation and p53 deletion
# Description: FIG. 5A schematically illustrates the in vivo study design of Puf-A shRNA delivery to knock down Puf-A. FIG. 5B is an assembly of microscopic images illustrating the number of tumor foci in mice administered with of control shRNA or Puf-A shRNA. FIG. 5C is a series of bar graphs illustrating the counted numbers of tumor foci (>250 μm) in mice with adenocarcinoma (left bar graph) and adenoma (right bar graph), after the administration of control or Puf-A-2 shRNA.
# An in vivo evaluation of Puf-A suppression in tumourigenesis was performed using LSL-Kras^G12D1p53^flox mice.
# FIG. 5A schematically illustrates the study design. LSL-Kras^G12D/p53^flox mice developed adenoma after 2 weeks of Kras^G12D activation and p53 deletion. Lentiviral vector, expressing shPuf-A-2 (a Puf-A shRNA) or control shRNA, was intranasally delivered to adenoma-bearing LSL-Kras^G12D/p53^flox mice twice a week for two weeks. The mice were sacrificed 6 weeks after Kras^G12D activation and p53 deletion.
# Puf-A RNA = test: Puf-A knockdown by shRNA lentivirus vectors, RT-PCR and Q-PCR; type: cell-based, human
# Description: FIG. 6A show the nucleotide sequence of human Puf-A gene (SEQ ID NO:1). […] FIG. 6C and FIG. 6D illustrate the Puf-A knockdown efficiency of control shRNA, shPuf-A-1 and shPuf-A-2 in colorectal cancer cells (HCT116) and lung cancer cells (H1299), determined by RT-PCR and Q-PCR analyses.
# The effect of the shRNAs constructs in FIG. 6B on Puf-A expression was evaluated using p53-proficient (p53^+/+ HCT116) and p53-deficient (p53^−/− HCT116 and p53^−/− H1299). The cells were transduced with control shRNA, shPuf-A-1 and shPuf-A-2 lentivirus vectors and Puf-A expression was determined by […] and Q-PCR. […] The knockdown efficiencies of shPuf-A-1 and shPuf-A-2 on Puf-A expression were approximately 90% and 75%, respectively, compare to the control shRNA (FIG. 6D).
# Puf-A proteins = test: Puf-A protein expression after shPuf-A transduction of cancer cell lines (Western blot); type: cell-based; conditions: A549, H460, H1299, CL1-5, HCT116, MB231, U87, LN229, T98 cells
# Description: (§1) FIG. 7A is an assembly of images showing the effect of control shRNA, shPuf-A-1 and Puf-A-2 on Puf-A expression and cleaved form of PARP1, by transducing control shRNA, shPuf-A-1 and Puf-A-2 into the following p53-deficient and p53-proficient cell lines: A549, H460, U87, HCT116, H1299, CL1-5, MB231, LN229 and T98. FIG. 7B is a series of flow cytometry (FACS) images, illustrating the cell-cycle of Puf-A depleted (shPuf-A transduced) p53 proficient (p53 wild type) and p53 deficient (p53 defective) cancer cell lines. FIG. 7C is a series of Western blot images showing the effect shPuf-A-1 transduction on the expression of Puf-A, LC3 (marker for autophagosome), LAMP2 (marker for lysosome) and p62 (an autophagy substrate) in p53^+/+HCT116, p53^−/−HCT116, and p53^−/−H1299 cancer cell lines. FIG. 7D is a Western Blot image illustrating the effect of suppressing p53 and Puf-A in p53-proficient cells (H460). FIG. 7E is a series of immunofluorescence images illustrating the effect of silencing Puf-A, by shPuf-A-1 transduction, on LC3 (green), Lamp1 (red) and DAPI (blue) expression in p53 proficient (p53^+/+) HCT116, P53 deficient (p53^−/−) HCT116 and H1299 cancer cells. […]
# The biological function of Puf-A on cancer cells was assessed, using lung cancer cells (A549, H460, H1299 and CL1-5); colorectal cancer cells (HCT116); breast cancer cells (MB231) and glioblastoma cells (U87, LN229 and T98).
# LC3-II, LAMP2, p62 = test: Autophagy markers after shPuf-A transduction (Western blot); type: cell-based; conditions: p53-proficient cells (p53+/+ HCT116)
# Description: as §1, with “cells. FIG. 7F is a series of graphs illustrating reduced proliferation rate of p53^−/− HCT116 and H1299 cells after shPuf-A-1 and shPuf-A-2 transduction compared to control shRNA transduction.” for “cells.”
# [2] = system: p53-deficient and P53-proficient cancer cells; test: Proliferation rate of cancer cells after shPuf-A transduction; type: cell-based; conditions: p53-deficient and P53-proficient cancer cells (FIG. 7F)
# Description: as §1, with “cells. FIG. 7F is a series of graphs illustrating reduced proliferation rate of p53^−/− HCT116 and H1299 cells after shPuf-A-1 and shPuf-A-2 transduction compared to control shRNA transduction.” for “cells.”
# p53 and p21 = p53 and p21 protein/RNA expression in p53 proficient cancer cells after Puf-A suppression; type: cell-based; conditions: A549, H460 or HCT116 p53 proficient cells
# Description: FIG. 8A is a series of Western blot, RT-PCR and Q-PCR images, illustrating shPuf-A1 and shPuf-A2 transduction increases the expression of p53 and p21 and reduces transcripts of PUF-A in the following p53-proficient (p53^+/+) cancer cell lines: A549, H460, and HCT116. FIG. 8B is a series of immunostaining images illustrating the expression of p53 (red) and DAPI (blue, internal control) in p53-proficient (p53^+/+) cancer cell lines A549, H460 and HCT116 cells and P53 deficient (p53^−/−) HCT116 cancer cells after control shRNA and shPuf-A-1 transduction. FIG. 8C is a series of bar graphs illustrating the FACS analyzed cell-cycles of Puf-A depleted cancer cells, A549, H460 and HCT116, with different p53 genotypes.
# The effect of Puf-A suppression on the expression level of p53 and p21 protein/RNA in p53 proficient cancer cells was examined, by infecting A549, H460 or HCT116 cancer cells with shPuf-A-1, shPuf-A-2 or control shRNA viral vectors. […] Cell-cycle progression of the same cancer cell lines was analyzed by FACS.
# Puf-A = test: Effect of small molecules blocking downstream effectors of Kras pathway on Puf-A expression (Western blot); type: cell-based; conditions: H460 and HCT116 cancer cells
# Description: FIG. 3C is a series of bar graphs showing Puf-A promoter activity in Kras^G12D or c-Myc transfected cells, determined by dual-luciferase reporter assay. FIG. 3D illustrates the binding of c-Myc protein to exon 1 of Puf-A locus in H1299 and HCT116 cells. […] FIG. 3F is an assembly of the Western blot images illustrating the effect of Raf inhibitor (Raf (i)), MEK1 inhibitor (PD98059) and MEK1/2 inhibitor (U0126) on the expression of Puf-A, phosphorylated ERK1/2, total ERK1/2 and β-actin in H460 (Kras ^Q61H) and HCT116 (Kras^G13D) cancer cells.
# The effect of various small molecules (such as Raf(i), PD98059 and UO126), which block the downstream effectors of Kras pathway (such as Rafs, MEK1 and MEK2), was assessed in H460 and HCT116 cancer cells.
Compound,reduction of number of adenocarcinoma focus (>250 μm) vs control shRNA vector [1] [fold],reduction of number of adenoma focus (>250 μm) vs control shRNA vector [1] [fold],"knockdown efficiency on Puf-A expression compared to control shRNA (Puf-A RNA; HCT116 and H1299 cells, Q-PCR (FIG. 6D)) [%]","expression level of Puf-A RNA compared to control shRNA (Puf-A RNA; p53-proficient (p53+/+ HCT116) and p53-deficient (p53−/− HCT116, p53−/− H1299) cells, GAPDH internal control)",expression level of Puf-A proteins compared to control shRNA (Puf-A proteins),"level of LC3-II expression (LC3-II, LAMP2, p62)",proliferation rate compared to control shRNA virus [2],expression level of p21 protein or RNA compared to control shRNA (p53 and p21),expression level of p53 protein or RNA compared to control shRNA (p53 and p21),expression levels of Puf-A (Puf-A)
"shPuf-A-2: novel short hairpin RNA targeting Puf-A, encoded by SEQ ID NO:3, delivered by lentivirus vector (DNA CCGGCGTGTGATCCAGTGTTACATTCTCGAGAATGTAACACTGGATCACACGTTTTTG)",15.4,2.6,~75,significantly reduced,significantly reduced,slight increase,reduced,significantly increased,significantly increased,–
COc1cccc(-c2cc(=O)c3ccccc3o2)c1N [PD98059],–,–,–,–,–,–,–,–,–,reduced

# — patent US9885044B2, “Polynucleotides and methods for inhibiting cancer cells” (Chang Gung Memorial Hospital, Linkou, priority 2015, dated 2018)
